In PubChem BioAssay AID2060901 (Molecular Pharmacology Branch, DTP, NCI, 2025) one finds IC50 and viability, T/C data, which are given here for four compounds.

For orientation: pIC50 means the IC50 on a negative log10 scale, so that one unit is a factor of ten. One may read the viability, T/C as the ratio of treated to control. The IC50 is the point on the concentration scale where inhibition reaches its midpoint.

This test relates to 422866-222-R5-J1-PDC complex spheroids viability. The test can be described thus: Anticancer human tumor 422866-222-R5-J1-PDC patient-derived pancreatic adenocarcinoma cell line growth inhibition [RAS]. As to conditions: for viability, T/C: stronger effect = lower value. The method in brief:
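Tumour cells grown as complex spheroids with HUVEC endothelial cells and mesenchymal stem cells, treated with RAS pathway inhibitor combinations. Each agent spans half-log steps from near clinical Cmax, or 10 microM where Cmax is unknown.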

pIC50: −log10 of the molar value. “And” between values parts separate entries of the source, which are not always exact repeats. Equal values may be shown once.
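Note: spheroids exposed to compounds for 7 days.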
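Throughout, for viability, T/C: 100% = DMSO vehicle control viability.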

`CC(=O)OC12COC1CC(O)C1(C)C(=O)C(O)C3=C(C)C(OC(=O)C(O)C(NC(=O)OC(C)(C)C)c4ccccc4)CC(O)(C(OC(=O)c4ccccc4)C21)C3(C)C` (stereo not given) + C#Cc1c(F)ccc2cc(O)cc(-c3ncc4c(N5CC6CCC(C5)N6)nc(OCC56CCCN5CC(F)C6)nc4c3F)c12: the negative-log IC50 (pIC50) is below 5.00 (curve of first compound, second compound 0.0316 µM); below 5.00 (curve of first compound, second compound 0.1 µM); 7.50 (curve of first compound, second compound 0.316 µM); above 7.50 (curve of first compound, second compound 1 µM); above 7.50 (curve of first compound, second compound 3.16 µM); above 7.50 (curve of first compound, second compound 10 µM). The viability, T/C is, setting by setting: (second compound 0.0316 µM, first compound 0.0316 µM) 55.1%; (second compound 0.0316 µM, first compound 0.1 µM) 74.1%; (second compound 0.0316 µM, first compound 0.316 µM) 77%; (second compound 0.0316 µM, first compound 1 µM) 83.1%; (second compound 0.0316 µM, first compound 3.16 µM) 76.5%; (second compound 0.0316 µM, first compound 10 µM) 69.7%. Also, the viability, T/C was 70.7% (second compound 0.1 µM, first compound 0.0316 µM); 61.3% (second compound 0.1 µM, first compound 0.1 µM); 56.5% (second compound 0.1 µM, first compound 0.316 µM); 65.5% (second compound 0.1 µM, first compound 1 µM); 64.1% (second compound 0.1 µM, first compound 3.16 µM); 61.7% (second compound 0.1 µM, first compound 10 µM). Moreover, the viability, T/C is 55.7% (second compound 0.316 µM, first compound 0.0316 µM); 48.2% (second compound 0.316 µM, first compound 0.1 µM); 46.6% (second compound 0.316 µM, first compound 0.316 µM); 56.8% (second compound 0.316 µM, first compound 1 µM); 67.4% (second compound 0.316 µM, first compound 3.16 µM); 55.1% (second compound 0.316 µM, first compound 10 µM). Besides, the viability, T/C is 34% (second compound 1 µM, first compound 0.0316 µM); 33.1% (second compound 1 µM, first compound 0.1 µM); 37.5% (second compound 1 µM, first compound 0.316 µM); 36.5% (second compound 1 µM, first compound 1 µM); 41% (second compound 1 µM, first compound 3.16 µM); 35.4% (second compound 1 µM, first compound 10 µM). In addition, the viability, T/C runs as follows: (second compound 3.16 µM, first compound 0.0316 µM) 21.2%; (second compound 3.16 µM, first compound 0.1 µM) 27.4%; (second compound 3.16 µM, first compound 0.316 µM) 29.6%; (second compound 3.16 µM, first compound 1 µM) 29.6%; (second compound 3.16 µM, first compound 3.16 µM) 32%; (second compound 3.16 µM, first compound 10 µM) 29.5%. The viability, T/C (second compound 10 µM, first compound 0.0316 µM) is 23.1%; the viability, T/C (second compound 10 µM, first compound 0.1 µM) is 22.2%; the viability, T/C (second compound 10 µM, first compound 0.316 µM) is 22.2%; the viability, T/C (second compound 10 µM, first compound 1 µM) was 20.9%; the viability, T/C (second compound 10 µM, first compound 3.16 µM) was 24.1%; the viability, T/C (second compound 10 µM, first compound 10 µM) is 22.9%.
Regarding `C=CC(=O)N1CCN(c2nc(OCC3CCCN3C)nc3c(F)c(-c4nc(N)cc(C)c4C(F)(F)F)c(Cl)cc23)C(C)C1` (stereo not given) + CCn1c(-c2cccnc2C(C)OC)c2c3cc(ccc31)N1CCOC(CC(NC(=O)C(C(C)C)N(C)C(=O)C3(F)CCN(C(=O)C#CC(C)(C)N(C)C)CC3)C(=O)N3CCCC(N3)C(=O)OCC(C)(C)C2)C1, the pIC50 is above 8.50 (curve of first compound, second compound 0.000949 µM); above 8.50 (curve of first compound, second compound 0.003 µM); above 8.50 (curve of first compound, second compound 0.00949 µM); above 8.50 (curve of first compound, second compound 0.03 µM); above 8.50 (curve of first compound, second compound 0.0949 µM); above 8.50 (curve of first compound, second compound 0.3 µM). Further, the viability, T/C by setting is: (second compound 0.000949 µM, first compound 0.00316 µM) 24.9%; (second compound 0.000949 µM, first compound 0.01 µM) 25.5%; (second compound 0.000949 µM, first compound 0.0316 µM) 23.4%; (second compound 0.000949 µM, first compound 0.1 µM) 23.8%; (second compound 0.000949 µM, first compound 0.316 µM) 21.1%; (second compound 0.000949 µM, first compound 1 µM) 22.7%. Also, the viability, T/C (second compound 0.003 µM, first compound 0.00316 µM) was 24.1%; the viability, T/C (second compound 0.003 µM, first compound 0.01 µM) is 25.6%; the viability, T/C (second compound 0.003 µM, first compound 0.0316 µM) is 21.5%; the viability, T/C (second compound 0.003 µM, first compound 0.1 µM) was 22.8%; the viability, T/C (second compound 0.003 µM, first compound 0.316 µM) was 21.1%; the viability, T/C (second compound 0.003 µM, first compound 1 µM) is 24%. The viability, T/C was 22.8% (second compound 0.00949 µM, first compound 0.00316 µM); 24.2% (second compound 0.00949 µM, first compound 0.01 µM); 23.3% (second compound 0.00949 µM, first compound 0.0316 µM); 20.6% (second compound 0.00949 µM, first compound 0.1 µM); 21.6% (second compound 0.00949 µM, first compound 0.316 µM); 22.1% (second compound 0.00949 µM, first compound 1 µM). The viability, T/C by setting is: (second compound 0.03 µM, first compound 0.00316 µM) 21.2%; (second compound 0.03 µM, first compound 0.01 µM) 23.9%; (second compound 0.03 µM, first compound 0.0316 µM) 17.8%; (second compound 0.03 µM, first compound 0.1 µM) 18.9%; (second compound 0.03 µM, first compound 0.316 µM) 21.1%; (second compound 0.03 µM, first compound 1 µM) 22.4%. The viability, T/C is 21.4% (second compound 0.0949 µM, first compound 0.00316 µM); 19.8% (second compound 0.0949 µM, first compound 0.01 µM); 20.1% (second compound 0.0949 µM, first compound 0.0316 µM); 20.2% (second compound 0.0949 µM, first compound 0.1 µM); 19.7% (second compound 0.0949 µM, first compound 0.316 µM); 21.3% (second compound 0.0949 µM, first compound 1 µM). Further, the viability, T/C (second compound 0.3 µM, first compound 0.00316 µM) is 18%; the viability, T/C (second compound 0.3 µM, first compound 0.01 µM) is 18%; the viability, T/C (second compound 0.3 µM, first compound 0.0316 µM) is 20.5%; the viability, T/C (second compound 0.3 µM, first compound 0.1 µM) is 19.6%; the viability, T/C (second compound 0.3 µM, first compound 0.316 µM) was 16.5%; the viability, T/C (second compound 0.3 µM, first compound 1 µM) was 20%.
Turning to `C=CC(=O)Nc1cc(Nc2nccc(-c3cn(C)c4ccccc34)n2)c(OC)cc1N(C)CCN(C)C`, the viability, T/C reads like this: (compound 0.00316 µM) 106% [middle of 4 runs]; (compound 0.01 µM) 74.7% and 114% (2×) and 81.9%; (compound 0.0316 µM) 87.1% [middle of 4 runs]; (compound 0.316 µM) 77.7% [middle of 4 runs]. Besides, the negative logarithm of the IC50 (pIC50) (curve of compound) is below 6.00.
`CCC(CC)c1cc(NC2CCC(N)C2)n2nccc2n1` (stereo not given): the viability, T/C was 99.2% [middle of 4 runs] (compound 0.0316 µM); 116% [middle of 4 runs] (compound 0.316 µM); 106% [middle of 4 runs] (compound 1 µM); 29.1% [middle of 4 runs] (compound 3.16 µM); 37.6% [middle of 4 runs] (compound 10 µM). In addition, the 50% inhibitory concentration (IC50) (curve of compound) was 2.36 µM [middle of 4 runs].
